Molecules are shown by their SMILES.

Data on three compounds can be found in patent publication US20140134253A1, “DRY POWDER FOSFOMYCIN/TOBRAMYCIN FORMULATION FOR INHALATION” (Gilead Sciences, Inc., priority 2011, published 2014).

The subject of data set [1] is E. coli, Proteus spp., Salmonella spp., Shigella spp., and S. marcescens. To be noted: cited from earlier work.
Data set [2] in a line: pH of the active ingredients in solution. In kind it is physicochemical. From the text: Although simple amino acids and peptides have been used as excipients in pulmonary delivery, they exist as zwitterions with the free amine being protonated by the carboxylic acid. Since fosfomycin disodium and tobramycin base are basic with pHs of approximately 9.7, and 11 in solution, respectively, a formulation combining fosfomycin disodium and tobramycin base would be expected to be outside of the pH range to be tolerable for administration by inhalation to the pulmonary system. However, with the addition of NAL, the pH range in the lung upon administration of the dry powder formulation of the present invention is between about 7 to about 8, and preferably, from about 7.1 to about 7.7. Without the addition of NAL, a dry powder formulation combining fosfomycin disodium and tobramycin in the same molar ratios would be expected to produce a pH in the lung of about 8.2 (when the pH of tobramycin is adjusted with 2.5 molar equivalent of sulfuric acid) and a pH of about 9.1 (without pH adjustment with sulfuric acid).

The conditions of data set [3]: cited from earlier work.
For data set [4] the following is noted: aerosol administration; cited from earlier work.

For `C[C@@H]1O[C@@H]1P(=O)(O)O` [Fosfomycin], the “fosfomycin concentration at which organisms are generally inhibited” value in data set [1] was not above 64 µg/mL.
For `C[C@@H]1O[C@@H]1P(=O)(O)O` [fosfomycin disodium], in data set [2], the pH in solution entry is listed as “approximately 9.7”.
In turn, `NC[C@H]1O[C@H](O[C@H]2[C@H](O)[C@@H](O[C@H]3O[C@H](CO)[C@@H](O)[C@H](N)[C@H]3O)[C@H](N)C[C@@H]2N)[C@H](N)C[C@@H]1O` [tobramycin, Tobramycin] displayed a pH in solution in data set [2] of approximately 11. In addition, the oral absorption entry in data set [3] (in vivo, po) was “poorly absorbed orally”. Further, the plasma half-life in data set [3] (parenteral administration, excreted by glomerular filtration) was 1 to 2 h. For the same compound, the sputum levels in data set [4] is not below 1000 µg/mL.
